Earlier results as cited in patent US20230240292A1, “METHOD FOR GROWING PLANTS” (Taminco BV, priority 2020, published 2023).
Where two headings read alike, the source gives them in different places.

How the values were obtained:
cauliflower seedlings = conditions: seedlings treated with 20 mM BABA

Root growth repression (in words) (Tomato plants; seedlings treated with as low as 0.25 mM JA)	Reduction in growth of cauliflower seedlings (cauliflower seedlings)	Root growth repression (in words) (Tomato plants; seedlings treated with as low as 0.5 mM BABA)	Compound
root growth repression was observed	–	–	CC/C=C\C[C@H]1C(=O)CC[C@@H]1CC(=O)O [JA, jasmonic acid]
–	14.7%	root growth repression was observed	CC(N)CC(=O)O (racemic) [BABA, beta-aminobutyric acid]
